Measured values reported in patent US20250041387A1, “POLYPEPTIDE SEQUENCE OF KDM6B AND APPLICATION OF KDM6B IN REGULATING AND CONTROLLING FUNCTION OF MESENCHYMAL STEM CELL” (BEIJING STOMATOLOGICAL HOSPITAL, CAPITAL MEDICAL UNIVERSITY, priority 2021, published 2025).

Assays:
[1] = molecular target: KDM6B/WDR5 protein complex (Homo sapiens, UniProt P61964); test: Co-IP of KDM6B/WDR5 complex in bone marrow mesenchymal stem cells; format: cell-based; design: endogenous in cells; host or cells: bone marrow mesenchymal stem cells; details: FIG. 3C
Experimental: Protein was extracted from cells of knockout group and overexpression group using IP lysate. The knockout group cells SCAPs-Scramsh and SCAPs-KDM6Bsh, SCAPs-Scramsh and SCAPs-WDR5sh, BMSCs-Scramsh and BMSCs-WDR5sh were added with KDM6B antibody, WDR5 antibody, and IgG antibody, respectively, and then rotated on a shaker at 4° C. overnight. On the next day, the cells were added with Protein A/G beads and rotated on a rotary shaker at 4° C. for 2 hours. A complex of protein-antibody-agarose bead was formed, and the formation of a protein complex of KDM6B and WDR5WB was detected by WB. The overexpression group cells SCAPs-Vector, SCAPs-HA-KDM6B, SCAPs-HA-KDM6B-mut102, and SCAPs-HA-KDM6B-mut114 were added with ProteinA/G beads with HA antibody, and cells SCAPs Vector and SCAPs-Myc-WDR5 were added with ProteinA/G beads with Myc antibody. All cells were incubated overnight to form a complex of protein-antibody-agarose bead. The formation of a protein complex of KDM6B and WDR5 was detected by WB method. • (2) Grouping: Input group (loading amount of 25 μg); antibody group (loading amount of 800 μg, 2 μg of antibody); IgG group (loading amount of 800 μg, 2 μg of antibody). Samples were diluted with lysate. • (3) Preparation of protein A/G beads
The protein A/G beads were washed 4 times with PBS, and centrifuged at 2000 g for 2 minutes. The supernatant was carefully collected, and added with PBS to achieve a content of protein A/G beads of 50%. 30 μL of protein A/G beads was added to each tube, and rotated at 4 degrees overnight. • (4) The samples were centrifuged at 5000 rpm for 30 s at 4° C., and washed 4-5 times with PBS by inverted up and down. Then the samples were centrifuged, and the supernatant was discarded. The samples were added with 30 μL of 2× loading buffer, and placed at 100° C. for 5 minutes. • (5) The supernatant was subjected to electrophoresis.

WDR5 synthetic protein = WDR5 synthetic protein (Homo sapiens, UniProt P61964); test: Polypeptide microarray of KDM6B incubated with biotin-labeled WDR5; format: binding; details: FIG. 3A, B; positive = optical density more than 30%
Excerpt: • (1) Synthesis of polypeptide chip: A polypeptide chip was designed by overlapping and synthesized according to the sequence of KDM6B protein, with a total of two arrays. • (2) Synthesis of polypeptide microarray: A matrix membrane was activated, and placed on a fully automated polypeptide chip synthesizer. A Fmoc-amino acid solution was automatically transferred to a specific position on the activated membrane according to the set procedure, to react with the membrane. The membrane was immersed sequentially into the blocking solution I and II to block side chains, and washed with dimethyl formamide (DMF). The membrane was placed in a deprotection solution to remove the Fmoc protective group at the amino-terminal, then washed with DMF, and dried with ethanol. The above steps were repeated until all polypeptide microarrays were completely synthesized. After the synthesis was completed, the protective groups of the side chains were removed with specific organic reagents. […] The control group was incubated with the blocking solution. • (6) Streptavidin-HRP incubation: The reaction reagent Streptavidin-HRP (High Sensitivity Streptavidin-HRP (prod #21133)) was diluted with the blocking solution in an ratio of 1:10000, and then the polypeptide microarray chip was incubated with 5 ml of the diluted Streptavidin-HRP under shaking at room temperature for 2 hours, and washed. • (7) Color development: ECL luminescence reagent was added, and digital imaging was performed on a Chempchemi digital imager. • (8) Scan of polypeptide microarray chip and data analysis of color spot: The colored polypeptide microarray chip was imaged at 425 nm using the Chempchemi Imaging System with 200 s exposure. The optical density of colored spots was analyzed using TotalLab image analysis software, and the optical density of each colored spot was calculated using the “Spot Edge Average” algorithm in the software, with the optical density of the surrounding background of each colored spot as a reference. […]

With “FITC-(Acp)-IVPMIHVSWNVARTVYGRKKRRQRRR [peptide 152]” the “opening/blocking of the binding of KDM6B/WDR5 protein complex (Co-IP)” value [1] was “could not effectively block the binding” and the “binding degree to WDR5 on polypeptide microarray (optical density of spots)” value (WDR5 synthetic protein) was “higher binding degree”.
